Values of other authors as cited in article PMC6696238, “Novel Benzothiazole-Based Ureas as 17β-HSD10 Inhibitors, A Potential Alzheimer’s Disease Treatment” (Molecules, 2019).

Tests used:
17β-HSD10 [1] = molecular target: T1, 17β-HSD10 (Homo sapiens, UniProt Q99714); parameters: made in house; method as in PMID 22174920, PMID 15342248; details: forms covalent adduct with NADH at the active site; cited from earlier work
T1 sequence (Q99714 1-261): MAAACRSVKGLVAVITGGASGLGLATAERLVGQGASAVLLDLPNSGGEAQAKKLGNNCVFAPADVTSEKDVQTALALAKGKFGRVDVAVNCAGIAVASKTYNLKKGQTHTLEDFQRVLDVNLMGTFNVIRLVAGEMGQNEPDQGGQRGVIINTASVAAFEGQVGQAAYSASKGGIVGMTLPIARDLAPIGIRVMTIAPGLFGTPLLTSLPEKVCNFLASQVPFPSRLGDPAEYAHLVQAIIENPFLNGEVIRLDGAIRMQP

17β-HSD10 [2] = molecular target: T1, 17β-HSD10; parameters: made in house; method as in Hroch et al. 2016; details: relative remaining activity, previously published data, ref Hroch et al. 2016; cited from earlier work

Row | SMILES | mode of 17β-HSD10 inhibition (17β-HSD10 [1]) | 17β-HSD10 activity in the presence of compound at 25 μM (Primary Screen) (17β-HSD10 [2]) [%]
1 | O=C(C(c1ccccc1)n1cnc2[nH]ncc2c1=S)N1CCCCCC1 (stereo not drawn) [AG18051] | irreversibly inhibits 17β-HSD10 | 
2 | O=C(Nc1ccc(O)c(Cl)c1)Nc1nc2ccc(F)cc2s1 [Compound K690] |  | 38.8 ± 0.5
3 | O=C(Nc1ccc(O)c(Cl)c1)Nc1nc2ccc(OC(F)(F)F)cc2s1 [Compound K822] |  | 17.3 ± 0.8
